In patent US9474790B2, “Stable, protracted GLP-1/glucagon receptor co-agonists for medical use” (Novo Nordisk A/S, priority 2013, dated 2016):
Numbered stars: 1 amine (or outer) side, 2 acyl side, 3 side chain; on linkers, the order of the positions; unused ones are H or OH. Square brackets hold non-standard residues; d marks the D form. Side chains are listed from the residue outwards. Peptide text beside a SMILES is read from it. * marks the point of attachment. C18 diacid = O=C(O)CCCCCCCCCCCCCCCCC(=O)*; γGlu = O=C(O)[C@H](CCC(=O)[*:2])N[*:1]; Ac4c = NC1(C(=O)O)CCC1; AEEA = NCCOCCOCC(=O)O; Aib = CC(C)(N)C(=O)O

These compounds were tested against T1, human glucagon receptor (Homo sapiens, UniProt P47871) (assay: Glucagon receptor binding, 125I-glucagon displacement SPA on isolated membranes). Conditions: displacement of 125I-glucagon from membranes; read-out: IC50 GlucR.
T1 construct: expressed in transfected cells; host or cells: BHK cells (parent BHK570, CRE luciferase clone BHK/KZ10-20-48), clone pLJ6'-4-25
T1 sequence (P47871 26-477): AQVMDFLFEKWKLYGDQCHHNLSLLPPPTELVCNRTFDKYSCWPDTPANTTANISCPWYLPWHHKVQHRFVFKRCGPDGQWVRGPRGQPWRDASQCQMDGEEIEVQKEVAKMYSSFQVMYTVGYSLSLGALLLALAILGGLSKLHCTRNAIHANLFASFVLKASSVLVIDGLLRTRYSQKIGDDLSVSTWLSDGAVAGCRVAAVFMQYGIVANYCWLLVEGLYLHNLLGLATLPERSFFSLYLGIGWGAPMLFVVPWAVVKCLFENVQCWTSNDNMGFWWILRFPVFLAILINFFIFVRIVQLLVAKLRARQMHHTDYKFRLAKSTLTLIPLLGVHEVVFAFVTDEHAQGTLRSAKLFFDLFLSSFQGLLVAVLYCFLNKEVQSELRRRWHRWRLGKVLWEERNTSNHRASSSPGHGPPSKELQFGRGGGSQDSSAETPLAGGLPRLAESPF
Procedure, shortened: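 Membranes from BHK cells stably expressing human glucagon receptor incubated 2 h at 25 °C with [125I]-glucagon (25 μl of 480 pM solution) and serial compound dilutions in WGA SPA format, pH 7.4 buffer with 0.1% ovalbumin. Albumin at max 0.001% or 0.2% final. IC50 from non-linear regression.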
For CC(C)C[C@H](NC(=O)[C@H](CC(=O)O)NC(=O)[C@H](CC(C)C)NC(=O)[C@H](Cc1ccc(O)cc1)NC(=O)[C@H](CCCNC(=N)N)NC(=O)[C@H](CO)NC(=O)[C@H](CC(C)C)NC(=O)[C@H](CC(=O)O)NC(=O)[C@H](CO)NC(=O)[C@@H](NC(=O)[C@H](Cc1ccccc1)NC(=O)[C@@H](NC(=O)CNC(=O)[C@H](CCC(N)=O)NC(=O)C1(NC(=O)[C@@H](N)Cc2c[nH]cn2)CCC1)[C@@H](C)O)[C@@H](C)O)C(=O)N[C@@H](CCCNC(=N)N)C(=O)N[C@@H](CCCNC(=N)N)C(=O)N[C@@H](C)C(=O)N[C@@H](CCCNC(=N)N)C(=O)N[C@@H](CC(=O)O)C(=O)N[C@@H](Cc1ccccc1)C(=O)N[C@H](C(=O)N[C@@H](CCC(N)=O)C(=O)N[C@@H](Cc1c[nH]c2ccccc12)C(=O)N[C@@H](CC(C)C)C(=O)N[C@@H](CC(C)C)C(=O)N[C@@H](CCCCNC(=O)CC[C@H](NC(=O)CC[C@H](NC(=O)COCCOCCNC(=O)COCCOCCNC(=O)CC[C@H](NC(=O)CC[C@H](NC(=O)CCCCCCCCCCCCCCCCC(=O)O)C(=O)O)C(=O)O)C(=O)O)C(=O)O)C(=O)N[C@H](C(N)=O)[C@@H](C)O)C(C)C [Example 46, N^ε28-[(4S)-4-carboxy-4-[[(4S)-4-carboxy-4-[[2-[2-[2-[[2-[2-[2-[[(4S)-4-carboxy-4-[[(4S)-4-carboxy-4-(17-carboxyheptadecanoylamino)butanoyl]amino]butanoyl]amino]ethoxy]ethoxy]acetyl]amino]ethoxy]ethoxy]acetyl]amino]butanoyl]amino]butanoyl]-[Acb2,Leu10,Arg12,Leu16,Arg20,Leu27,Lys28]-Glucagon amide] (H-H[Ac4c]QGTFTSDLSRYLDLRRARDFVQWLLK([γGlu-γGlu-AEEA-AEEA-γGlu-γGlu-C18 diacid])T-NH2; N-terminus assumed), the IC50 was 8.5 nM. CC(C)C[C@H](NC(=O)[C@H](CC(=O)O)NC(=O)[C@H](CC(C)C)NC(=O)[C@H](Cc1ccc(O)cc1)NC(=O)[C@H](CCCCN)NC(=O)[C@H](CO)NC(=O)[C@H](CC(C)C)NC(=O)[C@H](CC(=O)O)NC(=O)[C@H](CO)NC(=O)[C@@H](NC(=O)[C@H](Cc1ccccc1)NC(=O)[C@@H](NC(=O)CNC(=O)[C@H](CCC(N)=O)NC(=O)C1(NC(=O)[C@@H](N)Cc2c[nH]cn2)CCC1)[C@@H](C)O)[C@@H](C)O)C(=O)N[C@@H](CCCCN)C(=O)N[C@@H](CCCNC(=N)N)C(=O)N[C@@H](C)C(=O)N[C@@H](CCCNC(=N)N)C(=O)N[C@@H](CCC(=O)O)C(=O)N[C@@H](Cc1ccccc1)C(=O)N[C@H](C(=O)N[C@@H](CCC(N)=O)C(=O)N[C@@H](Cc1c[nH]c2ccccc12)C(=O)N[C@@H](CC(C)C)C(=O)N[C@@H](CC(C)C)C(=O)N[C@@H](CCCCNC(=O)CC[C@H](NC(=O)CC[C@H](NC(=O)COCCOCCNC(=O)COCCOCCNC(=O)CC[C@H](NC(=O)CC[C@H](NC(=O)CCCCCCCCCCCCCCCCC(=O)O)C(=O)O)C(=O)O)C(=O)O)C(=O)O)C(=O)N[C@H](C(N)=O)[C@@H](C)O)C(C)C [Example 47, N^ε28-[(4S)-4-carboxy-4-[[(4S)-4-carboxy-4-[[2-[2-[2-[[2-[2-[2-[[(4S)-4-carboxy-4-[[(4S)-4-carboxy-4-(17-carboxyheptadecanoylamino)butanoyl]amino]butanoyl]amino]ethoxy]ethoxy]acetyl]amino]ethoxy]ethoxy]acetyl]amino]butanoyl]amino]butanoyl]-[Acb2,Leu10,Leu16,Lys17,Arg20,Glu21,Leu27,Lys28]-Glucagon amide] (H-H[Ac4c]QGTFTSDLSKYLDLKRAREFVQWLLK([γGlu-γGlu-AEEA-AEEA-γGlu-γGlu-C18 diacid])T-NH2; N-terminus assumed) gave an IC50 of 1.5 nM. CC(C)C[C@H](NC(=O)[C@H](CC(=O)O)NC(=O)[C@H](CC(C)C)NC(=O)[C@H](Cc1ccc(O)cc1)NC(=O)[C@H](CCCCN)NC(=O)[C@H](CO)NC(=O)[C@H](CC(C)C)NC(=O)[C@H](CC(=O)O)NC(=O)[C@H](CO)NC(=O)[C@@H](NC(=O)[C@H](Cc1ccccc1)NC(=O)[C@@H](NC(=O)CNC(=O)[C@H](CCC(N)=O)NC(=O)C1(NC(=O)[C@@H](N)Cc2c[nH]cn2)CCC1)[C@@H](C)O)[C@@H](C)O)C(=O)N[C@@H](CCCNC(=N)N)C(=O)N[C@@H](CCCNC(=N)N)C(=O)N[C@@H](C)C(=O)N[C@@H](CCCNC(=N)N)C(=O)N[C@@H](CCC(=O)O)C(=O)N[C@@H](Cc1ccccc1)C(=O)N[C@H](C(=O)N[C@@H](CCC(N)=O)C(=O)N[C@@H](Cc1c[nH]c2ccccc12)C(=O)N[C@@H](CC(C)C)C(=O)N[C@@H](CC(C)C)C(=O)N[C@@H](CCCCNC(=O)CC[C@H](NC(=O)CC[C@H](NC(=O)COCCOCCNC(=O)COCCOCCNC(=O)CC[C@H](NC(=O)CC[C@H](NC(=O)CCCCCCCCCCCCCCCCC(=O)O)C(=O)O)C(=O)O)C(=O)O)C(=O)O)C(=O)N[C@H](C(N)=O)[C@@H](C)O)C(C)C [Example 49, N^ε28-[(4S)-4-carboxy-4-[[(4S)-4-carboxy-4-[[2-[2-[2-[[2-[2-[2-[[(4S)-4-carboxy-4-[[(4S)-4-carboxy-4-(17-carboxyheptadecanoylamino)butanoyl]amino]butanoyl]amino]ethoxy]ethoxy]acetyl]amino]ethoxy]ethoxy]acetyl]amino]butanoyl]amino]butanoyl]-[Acb2,Leu10,Leu16,Arg20,Glu21,Leu27,Lys28]-Glucagon amide] (H-H[Ac4c]QGTFTSDLSKYLDLRRAREFVQWLLK([γGlu-γGlu-AEEA-AEEA-γGlu-γGlu-C18 diacid])T-NH2; N-terminus assumed) was tested, and the IC50 was 1.7 nM. Work on CC(C)C[C@H](NC(=O)[C@H](Cc1c[nH]c2ccccc12)NC(=O)[C@H](CCC(N)=O)NC(=O)[C@@H](NC(=O)[C@H](Cc1ccccc1)NC(=O)[C@H](CCC(=O)O)NC(=O)[C@H](CCCNC(=N)N)NC(=O)[C@H](C)NC(=O)[C@H](CCCNC(=N)N)NC(=O)[C@H](CCCNC(=N)N)NC(=O)C(C)(C)NC(=O)[C@H](CC(=O)O)NC(=O)[C@H](CC(C)C)NC(=O)[C@H](Cc1ccc(O)cc1)NC(=O)[C@H](CCCCN)NC(=O)[C@H](CO)NC(=O)[C@H](CC(C)C)NC(=O)[C@H](CC(=O)O)NC(=O)[C@H](CO)NC(=O)[C@@H](NC(=O)[C@H](Cc1ccccc1)NC(=O)[C@@H](NC(=O)CNC(=O)[C@H](CCC(N)=O)NC(=O)C(C)(C)NC(=O)[C@@H](N)Cc1c[nH]cn1)[C@@H](C)O)[C@@H](C)O)C(C)C)C(=O)N[C@@H](CC(C)C)C(=O)N[C@@H](CCCCNC(=O)CC[C@H](NC(=O)CC[C@H](NC(=O)COCCOCCNC(=O)COCCOCCNC(=O)CC[C@H](NC(=O)CCCCCCCCCCCCCCCCC(=O)O)C(=O)O)C(=O)O)C(=O)O)C(=O)N[C@H](C(N)=O)[C@@H](C)O [Example 51, N^ε28-[(4S)-4-carboxy-4-[[(4S)-4-carboxy-4-[[2-[2-[2-[[2-[2-[2-[[(4S)-4-carboxy-4-(17-carboxyheptadecanoylamino)butanoyl]amino]ethoxy]ethoxy]acetyl]amino]ethoxy]ethoxy]acetyl]amino]butanoyl]amino]butanoyl]-[Aib2,Leu10,Aib16,Arg20,Glu21,Leu27,Lys28]-Glucagon amide] (H-H[Aib]QGTFTSDLSKYLD[Aib]RRAREFVQWLLK([γGlu-γGlu-AEEA-AEEA-γGlu-C18 diacid])T-NH2; N-terminus assumed) yielded an IC50 of 1.4 nM. Compound CC(C)C[C@H](NC(=O)[C@H](Cc1ccc(O)cc1)NC(=O)[C@H](CCCCN)NC(=O)[C@H](CO)NC(=O)[C@H](CC(C)C)NC(=O)[C@H](CC(=O)O)NC(=O)[C@H](CO)NC(=O)[C@@H](NC(=O)[C@H](Cc1ccccc1)NC(=O)[C@@H](NC(=O)CNC(=O)[C@H](CCC(N)=O)NC(=O)C(C)(C)NC(=O)[C@@H](N)Cc1c[nH]cn1)[C@@H](C)O)[C@@H](C)O)C(=O)N[C@@H](CCC(=O)O)C(=O)N[C@@H](CO)C(=O)N[C@@H](CCCCN)C(=O)N[C@@H](CCCNC(=N)N)C(=O)N[C@@H](C)C(=O)N[C@@H](CCCNC(=N)N)C(=O)N[C@@H](CCC(=O)O)C(=O)N[C@@H](Cc1ccccc1)C(=O)N[C@H](C(=O)N[C@@H](CCC(N)=O)C(=O)N[C@@H](Cc1c[nH]c2ccccc12)C(=O)N[C@@H](CC(C)C)C(=O)N[C@@H](CC(C)C)C(=O)N[C@@H](CCCCNC(=O)CC[C@H](NC(=O)CC[C@H](NC(=O)[C@H](CO)NC(=O)[C@H](CCC(=O)O)NC(=O)[C@H](CO)NC(=O)CC[C@H](NC(=O)CC[C@H](NC(=O)CCCCCCCCCCCCCCCCC(=O)O)C(=O)O)C(=O)O)C(=O)O)C(=O)O)C(=O)N[C@H](C(N)=O)[C@@H](C)O)C(C)C [Example 54, N^ε28-[(4S)-4-carboxy-4-[[(4S)-4-carboxy-4-[[(2S)-2-[[(2S)-4-carboxy-2-[[(2S)-2-[[(4S)-4-carboxy-4-[[(4S)-4-carboxy-4-(17-carboxyheptadecanoylamino)butanoyl]amino]butanoyl]amino]-3-hydroxypropanoyl]amino]butanoyl]amino]-3-hydroxypropanoyl]amino]butanoyl]amino]butanoyl]-[Aib2,Leu10,Glu15,Lys17,Arg20,Glu21,Leu27,Lys28]-Glucagon amide] (H-H[Aib]QGTFTSDLSKYLESKRAREFVQWLLK([γGlu-γGlu-Ser-Glu-Ser-γGlu-γGlu-C18 diacid])T-NH2; N-terminus assumed) has an IC50 of 1.7 nM.
